Results from US20060148858A1, “1, 2-Azole derivatives with hypoglycemic and hypolipidemic activity” (priority 2002, published 2006).

What was measured:
PPARδ-RXRα heterodimer = target: T1, PPARδ-RXRα heterodimer (Homo sapiens, UniProt Q03181); test: PPARδ-RXRα heterodimer ligand activity, luciferase reporter in COS-1 transformant (Test Example 4); format: cell-based; conditions: COS-1 transformant (hPPARδ, hRXRα, reporter), 36-48 hours, concentration for 50% of the maximum fold induction
T1 construct: expressed in transfected cells; host or cells: COS-1
T1 sequence (Q03181 1-441): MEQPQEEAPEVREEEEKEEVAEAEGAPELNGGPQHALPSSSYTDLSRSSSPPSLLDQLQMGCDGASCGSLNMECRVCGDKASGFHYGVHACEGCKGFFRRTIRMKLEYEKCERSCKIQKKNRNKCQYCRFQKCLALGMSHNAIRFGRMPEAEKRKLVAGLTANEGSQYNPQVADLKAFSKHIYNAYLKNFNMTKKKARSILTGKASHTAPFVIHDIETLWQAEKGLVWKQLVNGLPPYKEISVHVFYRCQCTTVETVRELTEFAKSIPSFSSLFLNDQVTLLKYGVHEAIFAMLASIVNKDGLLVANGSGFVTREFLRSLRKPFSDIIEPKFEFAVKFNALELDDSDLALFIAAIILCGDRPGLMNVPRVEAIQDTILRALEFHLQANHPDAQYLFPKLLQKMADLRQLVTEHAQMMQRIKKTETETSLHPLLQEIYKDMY
T1 sequence (P19793 1-462 partner): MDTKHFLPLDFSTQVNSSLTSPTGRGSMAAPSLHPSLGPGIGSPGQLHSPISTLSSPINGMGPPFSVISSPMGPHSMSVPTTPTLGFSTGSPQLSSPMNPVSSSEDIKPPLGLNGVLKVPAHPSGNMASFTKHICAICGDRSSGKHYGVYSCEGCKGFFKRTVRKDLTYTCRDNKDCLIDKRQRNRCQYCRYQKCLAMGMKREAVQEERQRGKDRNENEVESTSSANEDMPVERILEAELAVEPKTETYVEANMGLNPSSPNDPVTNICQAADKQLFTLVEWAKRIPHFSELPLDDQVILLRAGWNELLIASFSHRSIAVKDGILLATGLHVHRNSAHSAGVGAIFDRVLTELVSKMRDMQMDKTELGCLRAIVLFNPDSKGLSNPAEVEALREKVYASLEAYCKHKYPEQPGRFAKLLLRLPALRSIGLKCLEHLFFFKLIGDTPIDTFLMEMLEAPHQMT
Procedure: The transformant obtained in Reference Example 9a was suspended in DMEM medium (produced by Life Technologies, Inc., USA) containing 0.1% fatty acid-free bovine serum albumin (BSA) (produced by Wako Pure Chemical Industries, Ltd.), and inoculate to each well of a 96-well white plate (produced by Corning Costar Corporation, USA) by 80 μl at 1×10^4 cells/well. Then the test compound (20 μl) was added and cultured at 37° C. under 5% CO2 for 36-48 hours. After removing the medium from the 96-well white plate, 40 μl of PIKKAGENE LT 7.5 (produced by Wako Pure Chemical Industries, Ltd.) diluted twice with HBSS (HANKS' BALANCED SALT SOLUTION)(produced by BIO WHITTAKER Inc., USA), was added. After stirring, the luciferase activity was determined using 1420 ARVO Multilabel Counter (produced by PerkinElmer Inc., USA).
A fold induction was calculated based on the luciferase activity of each test compound by taking the luciferase activity in the non-treatment group as 1. The values of the test compound concentration and the fold induction were analyzed using PRISM (produced by GraphPad Software Inc. USA) to calculate the EC50 values, the effective concentration of a test compound for 50% of the maximum fold induction.
COS-1 cells were inoculated to a 150 cm^2 cell culture flask (produced by Corning Costar Corporation, USA) at the density of 5×10^6 cells/50 ml, and cultured at 37° C. under 5% CO2 conditions for 24 hours. Subsequently, a DNA was introduced into the cell under the condition shown below using Lipofectamine (produced by Invitrogen, USA).
First, Lipofectamine (125 μl), PLUS Reagent (100 μl, produced by Invitrogen, USA), plasmid pMCMVneo-hPPARδ (2.5 μg) obtained in Reference Example 3a, plasmid pMCMVneo-hRXRα (2.5 μg) obtained in Reference Example 4a and reporter plasmid pGL3-4ERPP-TK neo (5 μg) obtained in Reference Example 5a, and pRL-tk (5 μg, produced by Promega, USA) were mixed with opti-MEM (5 ml, produced by Invitrogen, USA) to give a transfection mixture.
Then, the above-mentioned transfection mixture and opti-MEM (20 ml) were added to COS-1 cells washed with opti-MEM, and the cells were cultured at 37° C. under 5% CO2 conditions for 3 hours. DMEM medium (25 ml, produced by Life Technologies, Inc., USA) containing 0.1% fatty acid-free bovine serum albumin (BSA) (produced by Wako Pure Chemical Industries, Ltd.) was added to the obtained COS-1 cells, and the cells were cultured at 37° C. under 5% CO2 conditions for 18-24 hours to give a transformant.

| SMILES | melting point [°C] | EC50 (PPARδ-RXRα heterodimer) [nM] |
| --- | --- | --- |
| O=C(O)Cc1cccc(OCCCc2cn(-c3ccc(C(F)(F)F)cn3)nc2-c2ccccc2)c1 [Example 124, [3-(3-{3-phenyl-1-[5-(trifluoromethyl)-2-pyridyl]-1H-pyrazol-4-yl}propoxy)phenyl]acetic acid] | 132 to 133 | 2.4 |
| CCOc1cc(OCCCc2cn(-c3ccc(C(F)(F)F)cn3)nc2C)ccc1CCC(=O)O [Example 126, 3-[2-ethoxy-4-(3-{3-methyl-1-[5-(trifluoromethyl)-2-pyridyl]-1H-pyrazol-4-yl}propoxy)phenyl]propionic acid] | 129 to 130 | 2.2 |
| Cc1nn(-c2ccc(C(F)(F)F)cn2)cc1CCCOc1cccc(CC(=O)O)c1 [Example 127, [3-(3-{3-methyl-1-[5-(trifluoromethyl)-2-pyridyl]-1H-pyrazol-4-yl}propoxy)phenyl]acetic acid] | 96 to 97 | 3.9 |
| COc1cc(CCC(=O)O)ccc1OCCCc1cn(-c2ccc(C(F)(F)F)cn2)nc1C [Example 129, 3-[3-methoxy-4-(3-{3-methyl-1-[5-(trifluoromethyl)-2-pyridyl]-1H-pyrazol-4-yl}propoxy)phenyl]propionic acid] | 136 to 137 | 4.9 |
| CCOc1nn(-c2ccc(C(F)(F)F)cn2)cc1CCCOc1cc(CC(=O)O)ccc1OC [Example 131, [3-(3-{3-ethoxy-1-[5-(trifluoromethyl)-2-pyridyl]-1H-pyrazol-4-yl}propoxy)-4-methoxyphenyl]acetic acid] | 142 to 143 | 2.7 |
| CCOc1cc(OCCCc2cn(-c3ccc(C(F)(F)F)cn3)nc2OC(C)C)ccc1CCC(=O)O [Example 154, 3-[2-ethoxy-4-(3-{3-isopropoxy-1-[5-(trifluoromethyl)-2-pyridyl]-1H-pyrazol-4-yl}propoxy)phenyl]propanoic acid] | 128 to 129 | 1.5 |
| CCCCOc1nn(-c2ccc(C(F)(F)F)cn2)cc1CCCOc1ccc(CCC(=O)O)c(OCC)c1 [Example 155, 3-[4-(3-{3-butoxy-1-[5-(trifluoromethyl)-2-pyridyl]-1H-pyrazol-4-yl}propoxy)-2-ethoxyphenyl]propanoic acid] | 102 to 103 | 3.8 |
| CCCc1nn(-c2ccc(C(F)(F)F)cn2)cc1CCCOc1ccc(C(C)(C)C(=O)O)cc1 [Example 157, 2-methyl-2-[4-(3-{3-propyl-1-[5-(trifluoromethyl)-2-pyridyl]-1H-pyrazol-4-yl}propoxy)phenyl]propanoic acid] | 84 to 85 | 4.7 |

More lines, now with the values ahead:

| melting point [°C] | EC50 (PPARδ-RXRα heterodimer) [nM] | SMILES |
| --- | --- | --- |
| 122 to 123 | 5.8 | CCOc1nn(-c2ccc(C(F)(F)F)cn2)cc1CCCOc1c(CC(=O)O)cccc1OC [Example 146, [2-(3-{3-ethoxy-1-[5-(trifluoromethyl)-2-pyridyl]-1H-pyrazol-4-yl}propoxy)-3-methoxyphenyl]acetic acid] |
| 131 to 132 | 2.7 | CCOc1nn(-c2ccc(C(F)(F)F)cn2)cc1CCCOc1ccc(CCC(=O)O)cc1OC [Example 150, 3-[4-(3-{3-ethoxy-1-[5-(trifluoromethyl)-2-pyridyl]-1H-pyrazol-4-yl}propoxy)-3-methoxyphenyl]propanoic acid] |
| 145 to 146 | 9.9 | CCOc1cc(OCCCc2cn(-c3ccc(C(F)(F)F)cn3)nc2OC)ccc1CCC(=O)O [Example 152, 3-[2-ethoxy-4-(3-{3-methoxy-1-[5-(trifluoromethyl)-2-pyridyl]-1H-pyrazol-4-yl}propoxy)phenyl]propanoic acid] |
| 112 to 113 | 1.9 | CCCOc1nn(-c2ccc(C(F)(F)F)cn2)cc1CCCOc1ccc(CCC(=O)O)c(OCC)c1 [Example 153, 3-[2-ethoxy-4-(3-{3-propoxy-1-[5-(trifluoromethyl)-2-pyridyl]-1H-pyrazol-4-yl}propoxy)phenyl]propanoic acid] |
